Assay results: ChEMBL document CHEMBL1151704, “Nicotinic acid receptor agonists” (J Med Chem, 2008)

How the values were obtained:
[1] = Therapeutic index, ratio of ED50 for plasma free fatty acid in Sprague-Dawley rat to ED50 for vasodilation in mouse; settings: read-out: Ratio ED50
[2] = species: Rattus norvegicus; experiment: Reduction of plasma free fatty acid in Sprague-Dawley rat; assay type: functional
[3] = target: Hydroxycarboxylic acid receptor 2 (Homo sapiens, UniProt Q8TDS4); experiment: Activity at GPR109a assessed as inhibition of forskolin-stimulated cAMP production; assay type: functional
[4] = target: Hydroxycarboxylic acid receptor 3 (Homo sapiens, UniProt P49019); experiment: Activity at GPR109b assessed as inhibition of forskolin-stimulated cAMP production; assay type: functional
Hydroxycarboxylic acid receptor 3, sequence (P49019 whole entry): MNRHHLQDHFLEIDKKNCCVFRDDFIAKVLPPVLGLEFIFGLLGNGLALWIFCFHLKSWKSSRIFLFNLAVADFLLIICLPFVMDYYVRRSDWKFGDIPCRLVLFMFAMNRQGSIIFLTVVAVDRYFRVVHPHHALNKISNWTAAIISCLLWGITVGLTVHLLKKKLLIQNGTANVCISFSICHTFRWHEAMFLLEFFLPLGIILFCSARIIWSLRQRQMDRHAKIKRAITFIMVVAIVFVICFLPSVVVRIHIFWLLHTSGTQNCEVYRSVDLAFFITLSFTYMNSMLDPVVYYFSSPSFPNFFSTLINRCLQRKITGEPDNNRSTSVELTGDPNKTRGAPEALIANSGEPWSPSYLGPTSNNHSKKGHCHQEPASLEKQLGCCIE

Hydroxycarboxylic acid receptor 2, sequence (Q8TDS4 whole entry): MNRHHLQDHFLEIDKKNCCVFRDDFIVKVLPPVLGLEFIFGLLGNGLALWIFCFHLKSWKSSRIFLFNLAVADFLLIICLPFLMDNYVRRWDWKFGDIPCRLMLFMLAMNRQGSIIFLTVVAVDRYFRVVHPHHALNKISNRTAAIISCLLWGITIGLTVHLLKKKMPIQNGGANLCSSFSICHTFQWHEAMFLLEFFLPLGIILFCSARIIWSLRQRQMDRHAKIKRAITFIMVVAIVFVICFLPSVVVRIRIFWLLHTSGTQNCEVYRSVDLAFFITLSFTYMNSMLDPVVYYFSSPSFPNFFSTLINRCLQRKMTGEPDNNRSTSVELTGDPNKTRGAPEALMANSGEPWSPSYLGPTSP

EC50 [3] | IC50 [3] | IC50 [4] | Structure (SMILES) | selectivity ratio [1] | ED50 [2]
 |  |  | O=C(CCc1nc(-c2ccc(O)cn2)no1)Nc1ccccc1C(=O)O | > 70 | 9 mg/kg
400 nM |  |  | CC(C)n1nnc2cc(C(=O)O)ccc21 |  | 
 |  |  | O=C(CCc1nc(-c2ccc(O)cc2)no1)Nc1ccccc1C(=O)O | > 70 | 9 mg/kg
 | 500 nM | 3000 nM | CC1(c2ccccc2)OC(C(=O)O)=CC1=O (configuration not stated) [ACIFRAN] |  | 
